Read-outs that look alike come from different tables or passages of the source. Where only a bound is given, the exact number is not on record here.

Consider two compounds from patent US12011427B2, “Methods of treating cancer” (Inspirna, Inc., priority 2019, dated 2024).

For data set [1], the system named is liver metastasis in gastrointestinal cancers. The settings on record: particularly liver metastasis in gastrointestinal cancers; WO2014/071067; cited from earlier work.
A further data set in a line: Solubility of β-GPA. The format is physicochemical.
The subject of data set [2] is animal models of noninsulin-dependent diabetes. The settings on record: animal models of noninsulin-dependent diabetes (rats, monkeys, hamsters); cited from earlier work.
The nature of data set [3]: β-GPA plasma pharmacokinetics after RGX-202 BID dosing. The class given is in vivo, human. To be noted: for AUC(0-t): read-out: Average AUC0-24. The protocol:
Method: Subjects were administered RGX-202 (a highly compressible salt form of β-GPA) in a regimen of 600 mg BID, 1,200 mg BID, 2,400 mg BID, or 3,600 mg BID, and plasma samples were taken from the subjects and tested using the protocol described below for levels of β-GPA over the course of 24 hours after administration.
The analyte, β-GPA, and internal standard (IS), [13C415N3]-β-GPA, are extracted from 50.0 μL of human plasma by a protein precipitation extraction procedure. The extraction procedure begins with the addition of 50.0 μL of internal standard working solution to all wells except double blanks, which receive 50.0 μL of water. Next the plate is covered and vortexed. Then 500 μL of acetonitrile/methanol (50/50, v/v) is added to all wells. Next the plate is covered, vortexed and centrifuged. Using a Tomtec Quadra 4, 200 μL of the supernatant is transferred into a new plate. Then 300 μL acetonitrile/methanol (50/50, v/v) is added to all wells. The plate is then sealed and vortexed. The extracts are chromatographed under reverse phase conditions on a Luna HPLC column 50×2.0 mm, 3 μm column using a gradient system with 10 mM ammonium acetate in water and acetonitrile. The compounds are detected and quantified by tandem mass spectrometry in positive ion mode on a MDS Sciex API 4000 equipped with a Turbo Ionspray® interface.

The subject of data set [4] is advanced gastrointestinal tumors. The data set can be described thus: RGX-202 monotherapy or combination with FOLFIRI in subjects with advanced gastrointestinal tumors. The class given is in vivo, human. The protocol: Method: Subjects with advanced gastrointestinal tumors (e.g., locally advanced and unresectable, or metastatic) were administered multiple doses of orally administered RGX-202 as a monotherapy or in combination with irinotecan, folinic acid, and fluorouracil. In the monotherapy arm of the study, RGX-202 was administered orally twice or three times daily on days 1-28 of each 28-day cycle. The dose regimen was dependent on the cohort in which the patient was enrolled. In the combination arm of the study, RGX-202 was administered in the same way as described for the monotherapy arm in combination with FOLFIRI. FOLFIRI was administered by intravenous administration of irinotecan (180 mg/m^2) over 90 minutes concurrently with intravenous administration of folinic acid (400 mg/m^2) over 2 hours, followed by fluorouracil (5-FU) (400 mg/m^2) intravenous bolus and then 5-FU (2400 mg/m^2) intravenous infusion over 46 hours, on days 1 and 15 of each 28-day cycle. During the dose escalation, subjects were evaluated for pharmacokinetics (using the method as described in Example 1), pharmacodynamics, safety, and efficacy of the drug.

The mark [5] stands for this setting: 1200 mg BID, human plasma, 1,200 mg BID.
The mark [6] stands for this setting: 2400 mg BID, human plasma, 2,400 mg BID.
The mark [7] stands for this setting: 3600 mg BID, human plasma, 3,600 mg BID.

As usually defined, the solubility is how much of the substance goes into solution per volume. The term Cmax denotes the maximum level reached in the sampled fluid or tissue. As for `N=C(N)NCCC(=O)O` [β-GPA, β-Guanidinopropionic acid], the suppression of metastasis result in data set [1] was “effective”. In addition, in the data set “Solubility of β-GPA” (organic solvents), the “solubility in organic solvents” value is reported as “low solubility”. In “Solubility of β-GPA” (water), this compound showed a solubility of more than 50 mg/mL. Moreover, in data set [2], the effect on hyperglycemia result is given as “ameliorate hyperglycemia”. The Cmax came to 4.79 µg/mL in data set [3] (setting [5]); 26.8 µg/mL in data set [3] (setting [6]); 47.7 µg/mL in data set [3] (setting [7]); 1.4 µg/mL in data set [3] (human plasma, 600 mg BID). In addition, the AUC(0-t) in data set [3] (setting [5]) was 45.2 µg·h/mL; in data set [3] (setting [6]), 165 µg·h/mL; in data set [3] (setting [7]) it was 241 µg·h/mL; in data set [3] (human plasma, 600 mg BID), 15.7 µg·h/mL. Moreover, the “AUC Dose Acc. Ratio” value in data set [3] (human plasma, 600 mg BID) was 1.0; in data set [3] (human plasma, 1,200 mg BID), 1.4; in data set [3] (human plasma, 2,400 mg BID), 2.7; in data set [3] (human plasma, 3,600 mg BID), 2.6. Also, the “Cmax Dose Acc. Ratio” value in data set [3] (human plasma, 600 mg BID) was determined as 1.0; in data set [3] (human plasma, 1,200 mg BID), 1.7; in data set [3] (human plasma, 2,400 mg BID), 4.8; in data set [3] (human plasma, 3,600 mg BID), 5.7. The “Dose Normalized Average Cmax” value was 0.0012 µg/mL in data set [3] (human plasma, 600 mg BID); 0.002 µg/mL in data set [3] (human plasma, 1,200 mg BID); 0.0056 µg/mL in data set [3] (human plasma, 2,400 mg BID); 0.0066 µg/mL in data set [3] (human plasma, 3,600 mg BID). For the same compound, the “Dose-Normalized Average AUC0-24” value in data set [3] (human plasma, 600 mg BID) was determined as 13.1 ng·h/mL; in data set [3] (human plasma, 1,200 mg BID) it was 18.8 ng·h/mL; in data set [3] (human plasma, 2,400 mg BID), 34.3 ng·h/mL; in data set [3] (human plasma, 3,600 mg BID) it was 33.5 ng·h/mL.

For `[H]/N=C(\N)NCCC(=O)O` [RGX-202], the “subjects exhibiting a partial response” value in data set [4] (of the 10 subjects who received the monotherapy, at 3,600 mg BID after 40 weeks) is recorded as “one”. For the same compound, in data set [4] (of the 10 subjects who received the monotherapy, at doses of 1,200 mg BID, 2,400 mg BID and 3,600 mg BID), the “subjects exhibiting stable disease” value is on record as “three”. Moreover, the objective activity entry in data set [4] (subjects with advanced gastrointestinal tumors) is listed as “activities were observed”. For the same compound, in data set [4] (subjects with advanced gastrointestinal tumors, oral dose escalation, monotherapy or combination), the dose limiting toxicity entry is given as “did not exhibit dose limiting toxicity”.
